How the values were obtained:
[1] = Unbound clearance in iv dosed rat; type: ADME, organism-based; conditions: in vivo
[2] = Volume of distribution at steady state in iv dosed rat; type: ADME, organism-based; conditions: in vivo, read-out: Vdss
[3] = Lipophilicity, log D of the compound at pH 7.4 by chromatographic method; type: physicochemical; conditions: buffer
[4] = Solubility of the compound by CLND method; type: physicochemical
[5] = Dissociation constant, pKa of compound; type: physicochemical
[6] = Half life in iv dosed rat; type: ADME, organism-based; conditions: in vivo
[7] = Stability in minipig microsomes assessed as clearance; type: ADME, Sus scrofa, Microsome; conditions: pig
[8] = Permeability of the compound by PAMPA; type: ADME; conditions: read-out: permeability
[9] = Stability in minipig Hepatocyte assessed as clearance; type: ADME, cell-based, Sus scrofa; conditions: pig, hepatocytes; read-out: CLH
[10] = Clearance in iv dosed rat; type: ADME, organism-based; conditions: in vivo

CL free [1] [mL/min/kg]	Vd [2] [L/kg]	chromatographic logD [3]	solubility kinetic [4] [µM]	pKa [5]	half-life [6] [h]	CLint scaled [7] [mL/min/kg]	Papp [8] [×10⁻⁶ cm/s]	CLint scaled [9] [mL/min/kg]	clearance [10] [mL/min/kg]	Structure (SMILES)
192	1.8	4.3	≥ 331	5.7	1.5	0.92	53	< 0.89	12.3	COc1ncc2cc1NS(=O)(=O)CCN(C)Cc1ccc3c(c1)N2CCO3
587	8.5	1.6	≥ 406	9.4	0.6	1.63	14	< 0.89	233	COc1ncc(N2CCOc3ccc(CN(C)C)cc32)cc1NS(C)(=O)=O
